Experimental data published in patent US20080145313A1, “Compositions and Methods for the Treatment and Prevention of Neoplastic Disorders” (Genesis Research & Development Corporation Limited, priority 2006, published 2008).

Legend:
RRM1 mRNA = RRM1 mRNA level by quantitative RT-PCR in A549 cells; assay type: cell-based, human; settings: 0.01 nM siRNA; 24 h post-transfection
Method: RNA was purified from cells using Trizol® extraction as per the manufacturer's protocol (Invitrogen). cDNA was prepared by digesting approximately 200 ng purified RNA with DNAse I (Invitrogen) for 15 minutes at room temperature, followed by 15 minutes at 65° C. in the presence of 25 mM EDTA. 30 ng random primers were added and incubated for 10 minutes at room temperature, 1 minute on ice; Superscript III polymerase (Invitrogen) was added in presence of 5 nM DTT (Sigma, St Louis, Mo.) and 1 mM deoxyribonucleotides (Invitrogen), and the reaction incubated at 25° C. for 5 minutes, followed by an hour at 55° C. cDNA was diluted 1:3 in 10 mM Tris pH 7.0, and quantitative RT-PCR carried out on an ABI Prism 7900HT (Applied Biosciences, Inc., Foster City, Calif.) using FastStart TaqMan SYBRGreen (Roche, Basel, Switzerland) and specific primers at 360 nM for RRM1 and RRM2 and the housekeeping genes HPRT and Lamin. Primer sequence pairs used for RRM1, RRM2, HPRT and lamin are given in SEQ ID NO: 4881 and 4882; 4883 and 4884; 4885 and 4886; 4887 and 4888 respectively.

A549 cells = test: Growth inhibition of siRNA-transfected A549 cells, SYBR Green I DNA content; assay type: cell-based, human; settings: 10 nM siRNA; DNA content 96 hours after transfection
Summary of the method: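 A549 cells reverse-transfected with 10 nM Stealth siRNAs via Lipofectamine RNAiMAX, seeded at 5×10^3 cells/cm^2 in RPMI 1640/10% FCS; non-specific siRNA control. DNA content read 96 h post-transfection by SYBR Green I fluorescence (ex 485/em 535 nm) after freeze-thaw and Triton X-100 lysis; mean of three wells.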

Substance: SEQ ID NO: 4830: Stealth siRNA targeting RRM1 (chain 1 AAGATCTGCTTATTCAGTAACTGGG; chain 2 AAGAUCUGCUUAUUCAGUAACUGGG; Commercial Stealth siRNA duplex, modification pattern not given here; one strand in two spellings)
- RRM1 mRNA expression (RRM1 mRNA): effectively silenced
- Growth Inhibition in A549 cells (A549 cells): ++ (inhibits by at least 75%)
